Assay results from article PMC4721142, “Randomized controlled studies on the efficacy of antiarthritic agents in inhibiting cartilage degeneration and pain associated with progression of osteoarthritis in the rat” (Arthritis Research & Therapy, 2016).
“And” between values parts separate entries of the source, which are not always exact repeats. Equal entries are not always repeated.

What was measured:
[1] = test system: NF-κB; test: TNF-α-stimulated NF-κB dual luciferase reporter assay in HeLa cells; format: cell-based
Description: NF-κB activity was assessed using a previously described dual plasmid reporter system. HeLa cells were transfected with NF-κB luciferase (Stratagene Products Division, Agilent Technologies, La Jolla, CA, USA) and pRLuc-N3 (PerkinElmer, Waltham, MA, USA) at an 8:1 ratio, respectively, in triplicate. […] NF-κB activity was measured 5 h later with a Dual-Glo Luciferase Assay (Promega, Madison, WI, USA) and an Omni plate reader (BMG Labtech, Cary, NC, USA). The ratio of firefly luciferase luminescence (NF-κB reporter) to Renilla luciferase luminescence (control) was normalized for the number of viable transfected cells. Data are reported as a ratio of activity of viable treated cells over the activity of cells not exposed to TNF-α or drug (fold stimulation above basal untreated levels of activity). The viability of HeLa cells with and without drug was also measured using a CellTiter-Glo luminescent viability assay (Promega). […]
NF-κB activity was assessed in HeLa cells that were transiently transfected with two reporter constructs as described in the manuscript. Agents were tested for their ability to block TNF- […]
Expression of the luciferase from the Renilla construct was used as a measure of viability, which was confirmed with a cytotoxicity assay (see later section).

[2] = test system: RAW 264.7 cells; test: RANKL-mediated osteoclastogenesis / matrix resorption (Osteologic) assay; format: cell-based, murine
Description: RAW 264.7 cells (American Type Culture Collection [ATCC], Manassas, VA, USA), a murine monocytic cell line that differentiates in the presence of RANKL, was used for measurements of osteoclastogenesis and osteoclast activity. Cells were amplified on nonadherent culture substratum in high-glucose Dulbecco’s modified Eagle’s medium (DMEM) containing 10 % fetal bovine serum (FBS) and penicillin-streptomycin in a 37 °C, 5 % CO2, humidified incubator and were passaged by manual dissociation. […] Plates were subsequently rinsed, bleached, dried, and analyzed for matrix degradation using a Nikon COOLSCOPE (Nikon Instruments, Melville, NY, USA). Matrix resorption was quantified using EclipseNet (Nikon Instruments)/Visiopharm (Visiopharm, Hørsholm, Denmark) software (see Additional file 1).
In Vitro Osteoclastogenesis
Osteoclastogenic activity was measured using BD osteologic plates and quantitation of the degree of bone matrix digestion on the plate surface. Images from the BD Osteologic assay used to […]
left pane depicts an example of a control well after removal of cells from matrix. Pseudocoloring of matrix (blue) and pits (green) is shown in the far right pane. A transparent overlay of the two images is shown in the center.
Figure 5 - Measurement of drug effects on osteoclastogenesis and osteoclast activity.
Comparisons were made between RANKL treated control wells and wells treated with both RANKL and […]
Agents were initially tested either during differentiation or post differentiation in the bone assay […]
(e.g., Figure 2, Sulfazalazine). […]
indicated (*/**: p < 0.05/0.01, unpaired t-test versus RANKL control). […]

[3] = test system: MMP-13; test: MMP-13 ELISA on supernatants of TNF-α-treated chondrogenic pellets; format: cell-based, human
[4] = Comparison of in vitro screens: overlapping effective and nontoxic range; conditions: for Overlapping effective and nontoxic range: inhibits with minimal or no toxicity to synovium or cartilage, overlapping range if effective in more than one assay;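 on all read-outs here: compares non-toxic ranges in synovial cells and chondrocytes with effective ranges against NFkB, MMP-13 and osteoclasts, giving their overlap as the predicted efficacy range in uM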
[5] = test system: NF-κB; conditions: cited from earlier work
[6] = test system: MIA rat model of OA; test: MIA trial 1 weight bearing (daily s.c. clonidine 0.1, fluocinolone 0.002, morphine 6 mg/kg); format: in vivo
Description: (§1) Weight bearing (WB; incapacitance) was measured five times per day, once per week, using a Linton incapacitance meter (Stoelting Co., Wood Dale, IL, USA). Rats were acclimated to the meter before study initiation, and, similarly, immediately before WB, the animals were placed in the meter and allowed to acclimate for 2–5 minutes. Each hind paw was placed on a separate force plate so that the force exerted by each side could be averaged over a 5-second interval, and the mean of three readings was taken for each data point. Right paw force was compared with that on the left side for each group to confirm that animals were displaying incapacitance and/or pain behavior. Differences in force (left minus right) and right paw force as a percentage of the total force exerted by both paws were determined and compared between groups.
Following isoflurane anesthesia, 50 μl (2 mg) of MIA was injected into the synovial space of the left knee. Animals were randomly assigned to groups, and pain behavior was assessed 7, 14, 21, and 28 days following MIA injection and intervention using WB with the Stoelting incapacitance meter (trial 1) or the dRS test (trials 2 and 3). […] Animals received MIA treatment and then saline control or therapeutic. […] Histopathology was performed at each time point and at study termination. All studies were conducted in accordance with the International Association for the Study of Pain Guidelines and were approved by the Algos Therapeutics, Inc. Institutional Animal Care and Use Committee (IACUC) before initiation. Those running the studies were blind to the treatments. See Additional file 1 for further details. […]
dosing were housed three per cage. Animals had free access to food and water and were maintained […]
The animal colony was maintained at approximately 21 °C. All experiments were conducted in accordance with the International Association for the Study of Pain Guidelines.

[7] = test system: MMT/MCLT rat model of OA; test: MMT/MCLT trial 1 weight bearing (daily morphine 10 mg/kg, tacrolimus 0.3 or 0.6 mg/kg, fluocinolone 5 or 10 μg/kg, clonidine 100 μg/kg, alendronate 10 μg/kg i.p.; curcumin, withaferin 50 mg/kg p.o.); format: in vivo; conditions: low or only dose
Description: as §1
Following isoflurane anesthesia, the medial collateral ligament was transected just below its attachment to the meniscus in the right knee. The meniscus was cut at its narrowest point away from the ossicles so as not to damage the tibial surface and to ensure that the anterior and posterior meniscus halves were freely movable. […] In trial 2, drugs were administered IA weekly beginning 1 week following surgery. Three weeks postsurgery, animals were humanely killed and their right knees were collected for histopathology. All studies were conducted in accordance with the International Association for the Study of Pain Guidelines and were approved by the Bolder BioPATH IACUC (Boulder, CO, USA) in compliance with regulations before study initiation (IACUC protocol BBP03-006). Those running the studies were blinded to the treatments. See Additional file 1 for further details.
Isoflurane and the right knee area prepared for surgery. A skin incision was made over the medial aspect of the knee and the medial collateral ligament was exposed by blunt dissection and then transected. The medial meniscus was cut through the full thickness to simulate a complete tear and the skin was then closed with suture.
All pharmaceutical agents were prepared and stored as recommended by the supplier. Daily drug preparations were made fresh from stock solutions. […]
In Trial 2 drugs were […]
administered IA weekly beginning one week following surgery. […]
were delivered by gavage and were prepared in 0.3% Methyl Cellulose.
WB was measured five times a day, once a week, using a Linton incapacitance meter (Stoelting Co.) to assess pain behavior. Rats were acclimated to the incapacitance meter prior to study initiation.
Similarly, immediately prior to WB animals were placed in the incapacitance meter and allowed to acclimate for 2-5 minutes. Each hind paw was placed on a separate force plate so that the force exerted by each side could be averaged over a 5 second interval and the mean of three readings taken for each data point. Right paw force was compared to left for each group to confirm that animals were displaying incapacitance / pain behavior. Difference in force (left minus right) and right paw force as a percentage of the total force exerted by both paws were determined and compared between groups. Three weeks after surgery, animals were humanely euthanized and right knees collected for histopathology evaluation.
Figure 2. MMT/MCLT Trial Timeline […]
MMT/MCLT Dosing (once/day)
The study design and animal usage was approved by Bolder BioPATH’s Institutional Animal Care and Use Committee (IACUC) for compliance with regulations prior to study initiation (IACUC […]
Labs. Animals were identified by a distinct mark at the base of the tail delineating group and animal number. After randomization, all cages were labeled with protocol number, group numbers, and animal numbers with appropriate color-coding (see protocol).

[8] = test system: MMT/MCLT rat model of OA; test: MMT/MCLT trial 1 histopathology (same doses); format: in vivo; conditions: low or only dose
Text: For MMT/MCLT rat knee joints, sections were cut in 200-μm steps; stained with toluidine blue (also with a right and left half per section); and similarly analyzed for cartilage degeneration, proteoglycan loss, collagen damage, and osteophyte formation. Results were averaged across the three sections for an overall semiquantitative score. Regional differences across the tibial plateau were taken into consideration by dividing each section into three zones delineated using an ocular micrometer (outside, middle, and inside). Scores were based on the percentage of area affected within the zone.
Cartilage degeneration in the tibia was scored on a 5-point scale as detailed in the Methods section of Additional file 1. The total extent of degeneration of the tibial plateau was measured (in micrometers) and included an analysis of cell loss, proteoglycan loss, and collagen damage. Significant cartilage degeneration reflecting any degeneration extending through more than 50 % of the cartilage thickness was also measured. Collagen damage across the medial tibial plateau (the most severely affected section of the two halves) was also quantified.
Osteophytes and femoral cartilage degeneration were analyzed as detailed in Additional file 1. Scoring of the osteophytes and categorization into small, medium, and large was performed using an ocular micrometer. The actual osteophyte measurement (tidemark to farthest distance point extending toward the synovium) was also recorded. The femoral cartilage degeneration score and the three-zone sum of the tibial cartilage degeneration scores (mean of three levels) were summed to create a total cartilage degeneration score. The mean osteophyte score for each joint was added to this value to create a total joint score. […]
Histopathology MMT/MCLT Model

[9] = test system: HeLa cells; test: HeLa cell viability (CellTiter-Glo)
Description: NF-κB activity was assessed using a previously described dual plasmid reporter system. HeLa cells were transfected with NF-κB luciferase (Stratagene Products Division, Agilent Technologies, La Jolla, CA, USA) and pRLuc-N3 (PerkinElmer, Waltham, MA, USA) at an 8:1 ratio, respectively, in triplicate. […] NF-κB activity was measured 5 h later with a Dual-Glo Luciferase Assay (Promega, Madison, WI, USA) and an Omni plate reader (BMG Labtech, Cary, NC, USA). The ratio of firefly luciferase luminescence (NF-κB reporter) to Renilla luciferase luminescence (control) was normalized for the number of viable transfected cells. Data are reported as a ratio of activity of viable treated cells over the activity of cells not exposed to TNF-α or drug (fold stimulation above basal untreated levels of activity). The viability of HeLa cells with and without drug was also measured using a CellTiter-Glo luminescent viability assay (Promega).
In Vitro Hela Cell Drug Toxicity Testing
Potential drug toxicity was measured using a CTG assay and HeLa cells (Promega). Drugs not tested in
this assay were tested in either of the in vitro toxicity assays already presented (synovial or chondrocyte
Table 3- Drug toxicity measured using a CTG assay and HeLa cells.

[10] = test system: IKK-2; conditions: reported; cited from earlier work
[11] = test system: Normal human articular chondrocytes; test: Cytotoxicity to chondrogenic pellets (CellTiter-Blue)
Description: Differentiated chondrogenic pellets were used both to test the ability of drugs to block MMP-13 activity and to test for drug toxicity. […] Supernatants were collected and analyzed for MMP-13 using an enzyme-linked immunosorbent assay (GE Healthcare Life Sciences, Little Chalfont, UK). Cytotoxicity to pellets was assessed using CellTiter-Blue (Promega).

[12] = test system: SW982; test: Synovial toxicity (CellTiter-Glo), with or without TNF-α
Description: Viability was measured with the CellTiter-Glo luminescent viability assay (Promega). […] To more accurately predict the effects of the drugs on osteoarthritic synovium, cells were tested with or without TNF-α (20 ng/ml; BioSource).
In Vitro Toxicity Testing with a Synovial Cell Line
Compounds were tested for synovial toxicity using SW982 cells alone or in the presence of TNF as

O=C1C(=Cc2ccccc2F)CNCC1=Cc1ccccc1F [Curcumin-14, 3,5-bis(2-flurobenzylidene)piperidin-4-one]
Effective range against NFkB [1]: ≥ 2.5 µM | Effective range against Osteoclasts [2]: Not effective | Effective range against MMP-13 [3]: ≥ 0.625 µM | Non-toxic & predicted range of efficacy [4]: 2.5 to 10 µM | Overlapping effective and nontoxic range [4]: 2.5 to 10 µM | times more potent than curcumin ([5]; reportedly): Reportedly 10 times more potent than curcumin Inhibits NF-κB by inhibiting IκB kinase (IKK) [82] Potent anticarcinogenic activity inducing death of lung, breast, ovarian, and cervical cancer cells [82]

CN1CC[C@]23c4c5ccc(O)c4O[C@H]2[C@@H](O)C=C[C@H]3[C@H]1C5 [Morphine]
Weight bearing, hours after dosing with significant difference ([6]; day 14): 1 h | Weight bearing, hours after dosing with significant difference ([6]; day 21, BL baseline): BL, 1, 3 | Weight bearing, hours with significant effect ([7]; day 7): 1 h | Weight bearing, hours with significant effect ([7]; day 21): 3,5 h | Bone score ([8]; mean): 3.63 | Depth ratio any matrix change, mean ([8]; mean): 0.34 | Depth ratio any matrix change, zone 2 ([8]; mean): 0.11 | Femoral cartilage degeneration score ([8]; mean): 2.33 and 2.33 ± 0.66 | Tibial cartilage degeneration score, 3-zone total ([8]; mean): 6.21 | Tibial cartilage degeneration score, zone 1 ([8]; mean): 4.25 | Tibial cartilage degeneration score, zone 2 ([8]; mean): 1.92 | Tibial cartilage degeneration score, zone 3 ([8]; mean): 0.04 | Tibial cartilage degeneration width, significant ([8]; mean): 666.67 µm | Tibial cartilage degeneration width, total ([8]; mean): 1279.17 µm | Tibial osteophyte measure ([8]; mean): 573.75 µm | Tibial osteophyte score ([8]; mean): 4.42 | Total joint score ([8]; mean): 12.96 and 12.96 ± 0.89 | Total joint score w/o femur ([8]; mean): 10.63 | % decrease, bone score ([8]; vs saline group): -12% | % decrease, depth ratio mean ([8]; vs saline group): 5% | % decrease, depth ratio zone 2 ([8]; vs saline group): 42% | % decrease, femoral cartilage degeneration score ([8]; vs saline group): -27% | % decrease, osteophyte measure ([8]; vs saline group): -12% | % decrease, osteophyte score ([8]; vs saline group): -13% | % decrease, significant degeneration width ([8]; vs saline group): 8% | % decrease, tibial score 3-zone total ([8]; vs saline group): 5% | % decrease, tibial score zone 1 ([8]; vs saline group): 1% | % decrease, tibial score zone 2 ([8]; vs saline group): 13% | % decrease, tibial score zone 3 ([8]; vs saline group): 0% | % decrease, total degeneration width ([8]; vs saline group): 3% | % decrease, total joint score ([8]; vs saline group): -5% | % decrease, total joint score w/o femur ([8]; vs saline group): -2%

COc1ccc(/C=C/c2ccccc2F)cc1 [NF-κB activation inhibitor IV, (E)-2-fluoro-4′-methoxystilbene]
fold more potent than resveratrol at inhibiting NF-κB [5]: Experimentally used as an anti-inflammatory but not an antioxidant 130-fold more potent than resveratrol at inhibiting NF-κB [94]

NC(=O)Nc1sc(-c2ccccc2)cc1C(N)=O [IKK inhibitor VI, (5-Phenyl-2-ureido)thiophene-3-carboxamide]
Effective against NF κβ (p<0.05) [1]: 0.23 to 15.3 µM | Effective range against NFkB [1]: ≥ 0.95 µM | Effective range against Osteoclasts [2]: ≥ 0.5 µM | Effective range against MMP-13 [3]: ≥ 0.24 µM | Non-toxic concentrations [9]: 0 to 0.9 M | Toxic concentrations (p<0.05) [9]: 1.9 to 3.83 µM | Non-toxic & predicted range of efficacy [4]: 0.95 to 4.0 µM | Overlapping effective and nontoxic range [4]: 0.24 to 15.2 µM | IC50 [10]: 13 to 18 nM | Non-toxic range (Chondrocyte) [11]: 0.23 to 15.6 µM | Non-toxic range (Synovial) [12]: 0.028 to 0.25 µM
